The values below come from patent US9216973B2, “Insecticidal compounds” (Syngenta Participations AG, priority 2008, dated 2015).

Holding throughout (type): in vivo
The test system of assay [1] is Heliothis virescens (Tobacco budworm). The assay can be described thus: Heliothis virescens egg test on artificial diet. Conditions: for pest or weed control at 200 ppm: 96 h, 200 ppm (concentration in well 18 ppm), eggs 0-24 h old on artificial diet, egg mortality, larval mortality, growth regulation after 4 days, read-out: control of Heliothis virescens. As for the experimental part:
(§1) This Example illustrates the insecticidal and acaricidal properties of compounds of formula (I). The tests were performed as follows:
(§2) Cotton leaf discs were placed on agar in a 24-well microtiter plate and sprayed with test solutions at an application rate of 200 ppm. After drying, the leaf discs were infested with 5 L1 larvae. The samples were checked for mortality, feeding behavior, and growth regulation 3 days after treatment (DAT). The following compound gave at least 80% control of Spodoptera littoralis: A1, A2, A5, A6, A7, A8, A10, A11, A12, A13, A14, A15, A16, A17, A18, A19, A21, A22, A23, A24, A25, A30, A31, A32, A33, A34, A35, A39, A40, A41 A42, A43, A44, A45, A46, A47, A48, A49, A50, A51, A53, A54, A55, A59, A60, A61, A62. Heliothis virescens (Tobacco budworm): Eggs (0-24 h old) were placed in 24-well microtiter plate on artificial diet and treated with test solutions at an application rate of 200 ppm (concentration in well 18 ppm) by pipetting. After an incubation period of 4 days, samples were checked for egg mortality, larval mortality, and growth regulation. The following compound gave at least 80% control of Heliothis virescens: A1, A2, A3, A4, A5, A6, A7, A8, A10, A11, A12, A13, A14, A15, A16, A18, A19, A21, A22, A24, A25, A30, A31, A32, A33, A34, A35, A37, A38, A39, A40, A42, A43, A44, A45, A46, A47, A48, A49, A50, A51, A55, AA57, A58, A59, A60, A61, A62. Plutella xylostella (Diamond back moth): 24-well microtiter plate (MTP) with artificial diet was treated with test solutions at an application rate of 200 ppm (concentration in well 18 ppm) by pipetting. After drying, the MTP's were infested with L2 larvae (7-12 per well). After an incubation period of 6 days, samples were checked for larval mortality and growth regulation. The following compound gave at least 80% control of Plutella xylostella: A1, A2, A5, A6, A7, A8, A9, A10, A11, A12, A13, A14, A15, A16, A17, A18, A19, A20, A21, A22, A24, A25, A30, A31, A32, A33, A34, A35, A37, A38, A39, A40, A42, A43, A44, A45, A46, A47, A48, A49, A50, A51, A52, A53, A54, A55, A57, A58, A59, A60, A61, A62, B3. Diabrotica balteata (Corn root worm): A 24-well microtiter plate (MTP) with artificial diet was treated with test solutions at an application rate of 200 ppm (concentration in well 18 ppm) by pipetting. After drying, the MTP's were infested with L2 larvae (6-10 per well). After an incubation period of 5 days, samples were checked for larval mortality and growth regulation. The following compound gave at least 80% control of Diabrotica balteata: A1, A2, A5, A6, A7, A10, A11, A12, A13, A14, A15, A16, A17, A18, A19, A21, A22, A24, A25, A30, A31, A32, A33, A34, A35, A38, A39, A40, A42, A43, A44, A45, A46, A47, A48, A49, A50, A59, A60, A61, A62. Thrips tabaci (Onion thrips): Sunflower leaf discs were placed on agar in a 24-well microtiter plate and sprayed with test solutions at an application rate of 200 ppm. After drying, the leaf discs were infested with an […] population of mixed ages. After an incubation period of 7 days, samples were checked for mortality. The following compounds gave at least 80% control of Thrips tabaci: A1, A2, A5, A6, A7, A8, A10, A12, A13, A14, A15, A16, A17, A18, A19, A21, A24, A25, A30, A31, A32, A33, A34, A35, A39, A42, A43, A44, A45, A46, A47, A48, A49, A50, A51, A53, A54, A57, A58, A59, A60, A61, A62. Tetranychus urticae (Two-spotted spider mite): Bean leaf discs on agar in 24-well microtiter plates were sprayed with test solutions at an application rate of 200 ppm. After drying, the leaf discs are infested with mite populations of mixed ages. 8 days later, discs are checked for egg mortality, larval mortality, and adult mortality. The following compound gave at least 80% control of Tetranychus urticae: A1, A2, A4, A5, A6, A7, A8, A10, A11, A12, A13, A14, A15, A16, A17, A18, A19, A20, A21, A22, A30, A31, A32, A33, A34, A35, A39, A40, A41, A42, A43, A44, A45, A46, A47, A48, A49, A50, A51, A53, A54, A55, A57, A59, A60, A61, A62.

Assay [2] has as its system Plutella xylostella (Diamond back moth). The assay can be described thus: Plutella xylostella larvae test on artificial diet. The settings on record: for pest or weed control at 200 ppm: 144 h, 200 ppm (concentration in well 18 ppm), artificial diet, L2 larvae, larval mortality and growth regulation after 6 days. As for the experimental part:
as §1, §2

Assay [3] relates to Diabrotica balteata (Corn root worm). Nature of the assay: Diabrotica balteata larvae test on artificial diet. Conditions: for pest or weed control at 200 ppm: 120 h, 200 ppm (concentration in well 18 ppm), artificial diet, L2 larvae, larval mortality and growth regulation after 5 days. The method, then:
as §1, §2

Assay [4] deals with Thrips tabaci (Onion thrips). The assay can be described thus: Thrips tabaci sunflower leaf disc spray test. The settings on record: for pest or weed control at 200 ppm: foliar, 168 h, 200 ppm spray on sunflower leaf discs, population of mixed ages, mortality after 7 days. The method, then:
as §1, §2

The test system of assay [5] is Tetranychus urticae (Two-spotted spider mite). The assay can be described thus: Tetranychus urticae bean leaf disc spray test. The settings on record: for pest or weed control at 200 ppm: foliar, 192 h, 200 ppm spray on bean leaf discs, mite populations of mixed ages, egg, larval and adult mortality 8 days later, read-out: control of Tetranychus urticae. As for the experimental part: as §1, §2

SMILES strings stand for the structures.

Take `Cc1cc(C2CC(c3cc(Cl)cc(Cl)c3)(C(F)(F)F)ON2C)ccc1C(=O)NC1C[S+]([O-])C1` (centres unmarked) [A18]: the pest or weed control at 200 ppm in assay [1], in assay [2], in assay [3], in assay [4] and in assay [5] was at least 80% in each case.
With `Cc1cc(C2=NCC(c3cc(Cl)cc(Cl)c3)(C(F)(F)F)C2)ccc1C(=O)NC1C[S+]([O-])C1` (centres unmarked) [A48], the pest or weed control at 200 ppm in assay [1], in assay [2], in assay [3], in assay [4] and in assay [5] was at least 80% each time.
`Cc1cc(N2CC(c3cc(Cl)cc(Cl)c3)(C(F)(F)F)OC2=O)ccc1C(=O)NC1C[S+]([O-])C1` (centres unmarked) [A10]: the pest or weed control at 200 ppm in assay [1], in assay [2], in assay [3], in assay [4] and in assay [5] was at least 80% each time.
`Cc1cc(C2=NOC(c3cc(Cl)cc(Cl)c3)(C(F)(F)F)C2O)ccc1C(=O)NC1CS(=O)(=O)C1` (centres unmarked) [A51]: the pest or weed control at 200 ppm in assay [1], in assay [2], in assay [4] and in assay [5] was at least 80% in each case.
Regarding `Cc1cc(C2CC(c3cc(Cl)cc(Cl)c3)(C(F)(F)F)ON2C)ccc1C(=O)NC1CSC1` (centres unmarked) [A21], the pest or weed control at 200 ppm in assay [1], in assay [2], in assay [3], in assay [4] and in assay [5] was at least 80% in each case.
For the molecule `Cc1cc(N2CC(c3cc(Cl)cc(Cl)c3)(C(F)(F)F)OC2=O)ccc1C(=O)NC1CSC1` (centres unmarked) [A11], the pest or weed control at 200 ppm in assay [1], in assay [2], in assay [3] and in assay [5] was at least 80% in each case.
Turning to `O=C(NC1CS(=O)(=O)C1)c1ccc(C2=NOC(c3cc(Cl)cc(Cl)c3)(C(F)(F)F)C2)c2ccccc12` (centres unmarked) [A15], the pest or weed control at 200 ppm in assay [1], in assay [2], in assay [3], in assay [4] and in assay [5] was at least 80% throughout.
`Cc1nc2c(C3=NOC(c4cc(Cl)cc(Cl)c4)(C(F)(F)F)C3)ccc(C(=O)NC3(C)CSC3)c2o1` (centres unmarked) [A27]: the “effect on mortality, feeding behavior, or growth regulation” value in assay [1] (same protocol, 200 ppm) is “little or no effect”; in assay [2] (same protocol, 200 ppm) it was “little or no effect”; in assay [3] (same protocol, 200 ppm), “little or no effect”; in assay [4] (same protocol, 200 ppm) it was “little or no effect”; in assay [5] (same protocol, 200 ppm) it was “little or no effect”.
As to `Cc1cc(C2=NCC(c3cc(Cl)cc(Cl)c3)(C(F)(F)F)C2)ccc1C(=O)NC1CS(=O)(=O)C1` (centres unmarked) [A46], the pest or weed control at 200 ppm in assay [1], in assay [2], in assay [3], in assay [4] and in assay [5] was at least 80% in each case.
For the molecule `Cc1cc(C2=NOC(c3cc(Cl)cc(Cl)c3)(C(F)(F)F)C2O)ccc1C(=O)NC1CSC1` (centres unmarked) [A54], the pest or weed control at 200 ppm in assay [2], in assay [4] and in assay [5] was at least 80% each time.
On to `O=C(NC1CS(=O)(=O)C1)c1ccc(C2=NOC(c3cc(Cl)cc(Cl)c3)(C(F)(F)F)C2)c2nsnc12` (centres unmarked) [A22], for which the pest or weed control at 200 ppm in assay [1], in assay [2], in assay [3] and in assay [5] was at least 80% throughout.
Regarding `Cc1cc(C2=NOC(c3cc(Cl)cc(Cl)c3)(C(F)(F)F)O2)ccc1C(=O)NC1CSC1` (centres unmarked) [A17], the pest or weed control at 200 ppm in assay [2], in assay [3], in assay [4] and in assay [5] was at least 80% each time.
On to `O=C(NC1CS(=O)(=O)C1)c1ccc(C2=NOC(c3cc(Cl)cc(Cl)c3)(C(F)(F)F)C2Br)c2ccccc12` (centres unmarked) [A42], for which the pest or weed control at 200 ppm in assay [1], in assay [2], in assay [3], in assay [4] and in assay [5] was at least 80% each time.
As to `Cc1cc(C2=NOC(c3cc(Cl)cc(Cl)c3)(C(F)(F)F)C2Br)ccc1C(=O)NC1CSC1` (centres unmarked) [A6], the pest or weed control at 200 ppm in assay [1], in assay [2], in assay [3], in assay [4] and in assay [5] was at least 80% each time.
For `Cc1cc(C2=NOC(c3cc(Cl)cc(Cl)c3)(C(F)(F)F)/C2=N/O)ccc1C(=O)NC1CS(=O)(=O)C1` (centres unmarked) [A55], the pest or weed control at 200 ppm in assay [1], in assay [2] and in assay [5] was at least 80% in each case.
As for `Cc1cc(C2=NOC(c3cc(Cl)cc(Cl)c3)(C(F)(F)F)C2Br)ccc1C(=O)NC1C[S+]([O-])C1` (centres unmarked) [A7], the pest or weed control at 200 ppm in assay [1], in assay [2], in assay [4] and in assay [5] was at least 80% in each case.
On to `Cc1cc(C2=NOC(c3cc(Cl)cc(Cl)c3)(C(F)(F)F)C2O)ccc1C(=O)NC1C[S+]([O-])C1` (centres unmarked) [A53], for which the pest or weed control at 200 ppm in assay [2], in assay [4] and in assay [5] was at least 80% each time.
